Measurements published in ChEMBL document CHEMBL5143564, “PES derivative PESA is a potent tool to globally profile cellular targets of PES” (Bioorg Med Chem Lett, 2022).
The source made the active and inactive calls.

Assays:
DOHH-2 [1] = test: Up regulation of HSP70 expression in human DOHH-2 cells at 0.5 to 8 uM measured after 24 hrs by Western blot analysis; format: functional, cell-based; settings: dose 0.5-8 µM
[2] = target: T1, Protein disulfide-isomerase A3 (Homo sapiens) (UniProt P30101); test: Binding affinity to PDIA3 in human DOHH-2 cells by MS analysis; format: cell-based
T1 sequence (whole entry): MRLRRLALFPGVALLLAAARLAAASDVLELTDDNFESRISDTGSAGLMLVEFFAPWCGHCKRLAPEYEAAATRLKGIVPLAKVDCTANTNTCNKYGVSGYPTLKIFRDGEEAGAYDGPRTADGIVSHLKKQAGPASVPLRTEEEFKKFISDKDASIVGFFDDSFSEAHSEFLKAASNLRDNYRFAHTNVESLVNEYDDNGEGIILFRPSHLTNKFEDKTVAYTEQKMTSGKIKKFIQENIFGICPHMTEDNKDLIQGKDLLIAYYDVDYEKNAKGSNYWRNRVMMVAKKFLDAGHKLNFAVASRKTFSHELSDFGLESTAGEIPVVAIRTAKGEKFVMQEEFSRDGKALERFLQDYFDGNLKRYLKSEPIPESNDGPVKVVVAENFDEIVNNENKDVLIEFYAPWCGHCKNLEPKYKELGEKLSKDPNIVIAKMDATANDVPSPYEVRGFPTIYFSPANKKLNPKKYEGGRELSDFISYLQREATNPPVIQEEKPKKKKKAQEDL

DOHH-2 [3] = test: Induction of autophagy in human DOHH-2 cells assessed as change in transformation of LC3B1 to LC3B2 expression at 0.5 to 8 uM measured after 24 hrs by Western blot analysis; format: functional, cell-based; settings: dose 0.5-8 µM
[4] = target: T2, Peroxiredoxin-5, mitochondrial (Homo sapiens) (UniProt P30044); test: Binding affinity to PRDX5 in human MDA-MB-453 cells measured after 6 hrs by pull-down assay; format: cell-based; settings: dose <= 20.0 µM, DDE = dose-dependent effect
T2 sequence (whole entry): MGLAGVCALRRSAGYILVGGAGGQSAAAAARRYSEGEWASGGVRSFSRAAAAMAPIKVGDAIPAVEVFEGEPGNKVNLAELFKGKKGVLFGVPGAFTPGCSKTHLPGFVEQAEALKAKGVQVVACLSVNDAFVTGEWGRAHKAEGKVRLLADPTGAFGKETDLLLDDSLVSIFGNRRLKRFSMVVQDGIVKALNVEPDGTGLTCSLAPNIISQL

Plastin-2 (Homo sapiens) = target: T3, Plastin-2 (Homo sapiens) (UniProt P13796); test: Binding affinity to plastin-2 in human DOHH-2 cells by MS analysis; format: cell-based
T3 sequence (whole entry): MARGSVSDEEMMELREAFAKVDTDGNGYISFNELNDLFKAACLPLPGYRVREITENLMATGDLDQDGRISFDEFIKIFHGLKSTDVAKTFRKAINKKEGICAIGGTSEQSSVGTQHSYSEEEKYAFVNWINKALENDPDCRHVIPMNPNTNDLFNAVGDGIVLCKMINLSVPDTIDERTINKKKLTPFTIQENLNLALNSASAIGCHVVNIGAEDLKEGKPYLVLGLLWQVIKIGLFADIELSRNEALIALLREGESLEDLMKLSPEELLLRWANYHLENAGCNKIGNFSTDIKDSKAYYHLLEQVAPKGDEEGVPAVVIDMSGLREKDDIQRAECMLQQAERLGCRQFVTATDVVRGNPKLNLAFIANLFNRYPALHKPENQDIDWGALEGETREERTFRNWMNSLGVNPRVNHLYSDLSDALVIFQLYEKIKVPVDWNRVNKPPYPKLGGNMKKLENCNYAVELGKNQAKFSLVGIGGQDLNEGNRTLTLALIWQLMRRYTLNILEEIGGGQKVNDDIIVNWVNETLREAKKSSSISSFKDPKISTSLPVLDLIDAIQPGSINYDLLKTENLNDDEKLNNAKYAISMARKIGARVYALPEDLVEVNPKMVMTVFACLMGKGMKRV

[5] = target: T4, D-3-phosphoglycerate dehydrogenase (Homo sapiens) (UniProt O43175); test: Binding affinity to D-3-phosphoglycerate dehydrogenase in human DOHH-2 cells by MS analysis; format: cell-based
T4 sequence (whole entry): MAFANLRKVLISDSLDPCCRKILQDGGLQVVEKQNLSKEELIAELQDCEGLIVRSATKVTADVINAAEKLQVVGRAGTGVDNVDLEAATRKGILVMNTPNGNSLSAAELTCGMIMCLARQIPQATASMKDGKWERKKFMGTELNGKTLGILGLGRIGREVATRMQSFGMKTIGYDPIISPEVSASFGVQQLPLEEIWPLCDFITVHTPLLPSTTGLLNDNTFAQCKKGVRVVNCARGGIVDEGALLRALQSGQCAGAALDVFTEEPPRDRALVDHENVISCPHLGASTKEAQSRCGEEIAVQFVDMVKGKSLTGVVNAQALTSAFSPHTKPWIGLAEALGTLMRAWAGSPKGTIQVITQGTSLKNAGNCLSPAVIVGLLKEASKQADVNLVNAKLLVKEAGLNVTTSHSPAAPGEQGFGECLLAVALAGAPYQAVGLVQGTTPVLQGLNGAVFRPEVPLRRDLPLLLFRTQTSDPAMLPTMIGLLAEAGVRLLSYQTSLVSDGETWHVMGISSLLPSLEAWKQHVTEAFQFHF

[6] = target: Coronin-1A (Homo sapiens) (UniProt P31146); test: Binding affinity to coronin-1A in human DOHH-2 cells measured after 6 hrs by pull-down assay; format: cell-based; settings: DDE = dose-dependent effect
[7] = target: Glutathione S-transferase P (Homo sapiens) (UniProt P09211); test: Binding affinity to GSTP1 in human DOHH-2 cells by MS analysis; format: cell-based
DOHH-2 [8] = test: Induction of apoptosis in human DOHH-2 cells assessed as increase in cleaved caspase-3 expression at 8 uM measured after 4 to 24 hrs by Western blot analysis; format: functional, cell-based; settings: time 4-24 hrs

Measured: Activity

Sequence of Coronin-1A (Homo sapiens) (P31146 whole entry): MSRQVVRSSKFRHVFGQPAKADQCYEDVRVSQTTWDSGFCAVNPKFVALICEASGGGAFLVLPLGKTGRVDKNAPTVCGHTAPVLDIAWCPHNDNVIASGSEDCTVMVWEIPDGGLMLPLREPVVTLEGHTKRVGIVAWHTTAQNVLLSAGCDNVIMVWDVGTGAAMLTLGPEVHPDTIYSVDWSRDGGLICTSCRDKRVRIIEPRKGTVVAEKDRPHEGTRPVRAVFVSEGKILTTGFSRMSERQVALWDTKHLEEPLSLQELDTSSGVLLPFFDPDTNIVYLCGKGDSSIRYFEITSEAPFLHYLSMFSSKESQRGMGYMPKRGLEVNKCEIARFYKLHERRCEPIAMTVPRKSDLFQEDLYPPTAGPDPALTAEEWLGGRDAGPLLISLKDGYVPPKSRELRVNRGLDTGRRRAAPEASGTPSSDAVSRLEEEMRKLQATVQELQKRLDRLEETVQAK
Sequence of Glutathione S-transferase P (Homo sapiens) (P09211 2-210 limits assumed): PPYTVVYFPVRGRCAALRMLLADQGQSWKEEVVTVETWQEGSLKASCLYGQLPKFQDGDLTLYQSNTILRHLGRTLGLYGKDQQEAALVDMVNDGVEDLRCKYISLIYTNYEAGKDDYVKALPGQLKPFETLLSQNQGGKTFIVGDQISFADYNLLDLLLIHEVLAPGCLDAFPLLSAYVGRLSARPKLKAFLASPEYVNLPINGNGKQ

C#Cc1cccc(C#CS(N)(=O)=O)c1
active: DOHH-2 [1] | [2] | DOHH-2 [3] | [4] Dde | Plastin-2 (Homo sapiens) | [5] | [6] Dde | [7] | DOHH-2 [8]
